The source of these data is PubChem BioAssay AID298 (DTP/NCI, 2004).

Values joined by “and” are separate entries in the source; they are usually repeats but may differ in a detail not shown here. Identical values can stand only once. Inconclusive results are not listed.

The test relates to MX-1 breast xenograft, intrarenal, nude mice, tumor weight. In words: NCI In Vivo Anticancer Drug Screen. Data for tumor model Human Mammary Carcinoma MX-1 Xenograft (intrarenal inoculation) in NU/NU BALB/C (nude) mice. The note with it: endpoint: mean tumor weight change, higher = larger tumour. In outline:
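Transplantable tumors established in mice; animals dosed with compound or vehicle; survival or tumor size then recorded. Result reported as treated (T) divided by vehicle control (C).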

[1] abbreviates: dose: 75.0 mg/kg/injection, schedule: Q04DX003 (ip), vehicle: saline with Tween-80.
Where [2] appears, read: dose: 150.0 mg/kg/injection, schedule: Q04DX003 (ip), vehicle: saline with Tween-80.
Setting [3] is: dose: 300.0 mg/kg/injection, schedule: Q04DX003 (sc), vehicle: Klucel (hydroxypropylcellulose) (HPC).
[4] abbreviates: dose: 600.0 mg/kg/injection, schedule: Q04DX003 (sc), vehicle: Klucel (hydroxypropylcellulose) (HPC).
Where [5] appears, read: dose: 1200.0 mg/kg/injection, schedule: Q04DX003 (sc), vehicle: Klucel (hydroxypropylcellulose) (HPC).
[6] abbreviates: dose: 150.0 mg/kg/injection, schedule: Q04DX003 (ip), vehicle: DMSO.
Where [7] appears, read: dose: 300.0 mg/kg/injection, schedule: Q04DX003 (ip), vehicle: DMSO.

`CC1OC(O[C@H]2/C=C/C=C/C=C/C=C/C=C/C=C/C=C/[C@H](C)[C@@H](O)[C@@H](C)[C@H](C)OC(=O)C[C@H](O)C[C@H](O)CC[C@@H](O)[C@H](O)C[C@H](O)C[C@]3(O)C[C@H](O)[C@@H](C(=O)O)[C@H](C2)O3)C(O)C(N)C1O` (stereo partly drawn): the T/C by setting is: (dose: 12.5 mg/kg/injection, schedule: Q04DX003 (ip), vehicle: suspension in saline) 61 % of control; (dose: 25.0 mg/kg/injection, schedule: Q04DX003 (ip), vehicle: suspension in saline) 57 % of control; (dose: 50.0 mg/kg/injection, schedule: Q04DX003 (ip), vehicle: suspension in saline) 77 % of control; (dose: 100.0 mg/kg/injection, schedule: Q04DX003 (ip), vehicle: suspension in saline) 84 % of control and 89 % of control; (dose: 200.0 mg/kg/injection, schedule: Q04DX003 (ip), vehicle: suspension in saline) 73 % of control; (dose: 400.0 mg/kg/injection, schedule: Q04DX003 (ip), vehicle: suspension in saline) 79 % of control.

With `CO[C@H](/C(C)=C/C=C/C(C)=C/c1coc(C)n1)[C@H](C)[C@H]1C[C@@H](O)[C@@]2(C)O[C@H]2/C=C/[C@@H](C)[C@@H]2C[C@@H](CC(=O)O2)C[C@H]2O[C@@H]2C(=O)O1`, the T/C was 62 % of control (dose: 0.13 mg/kg/injection, schedule: Q04DX003 (ip), vehicle: other); 67 % of control (dose: 0.2 mg/kg/injection, schedule: Q04DX003 (ip), vehicle: other); 10 % of control (dose: 0.25 mg/kg/injection, schedule: Q04DX003 (ip), vehicle: Klucel (hydroxypropylcellulose) (HPC)); 46 % of control and 55 % of control and 63 % of control (dose: 0.25 mg/kg/injection, schedule: Q04DX003 (sc), vehicle: Klucel (hydroxypropylcellulose) (HPC)); 55 % of control (dose: 0.3 mg/kg/injection, schedule: Q04DX003 (ip), vehicle: other); 27 % of control (dose: 0.44 mg/kg/injection, schedule: Q04DX003 (ip), vehicle: other). Besides, the T/C is 7 % of control (dose: 0.5 mg/kg/injection, schedule: Q04DX003 (ip), vehicle: Klucel (hydroxypropylcellulose) (HPC)); 35 % of control and 36 % of control and 41 % of control (dose: 0.5 mg/kg/injection, schedule: Q04DX003 (sc), vehicle: Klucel (hydroxypropylcellulose) (HPC)); 5 % of control (dose: 1.0 mg/kg/injection, schedule: Q04DX003 (ip), vehicle: Klucel (hydroxypropylcellulose) (HPC)); 4 % of control and 19 % of control (dose: 1.0 mg/kg/injection, schedule: Q04DX003 (sc), vehicle: Klucel (hydroxypropylcellulose) (HPC)).

Regarding `CNC=O`, the T/C by setting is: (dose: 100.0 mg/kg/injection, schedule: Q01DX010 (sc), vehicle: saline) 47 % of control; (dose: 200.0 mg/kg/injection, schedule: Q01DX010 (sc), vehicle: saline) 10 % of control.

Regarding `O=C1C2CC(Cl)C(SSC3CC4C(=O)N(SC(Cl)(Cl)C(Cl)Cl)C(=O)C4CC3Cl)CC2C(=O)N1SC(Cl)(Cl)C(Cl)Cl` (stereo not drawn), the T/C under setting [1] was 88 % of control and the T/C under setting [2] is 45 % of control.

Take `Cc1ccc(S(=O)(=O)NC(=O)C2C(=O)CC3(CCCCC3)CC2=O)cc1`: the T/C reads like this: under setting [3], 81 % of control; under setting [4], 95 % of control; under setting [5], 121 % of control; (dose: 2400.0 mg/kg/injection, schedule: Q04DX003 (sc), vehicle: Klucel (hydroxypropylcellulose) (HPC)) 117 % of control.

As for `COC(=O)c1ccc(N=NN(C)COC(C)=O)cc1`, the T/C is, setting by setting: (dose: 60.0 mg/kg/injection, schedule: Q04DX003 (ip), vehicle: Klucel (hydroxypropylcellulose) (HPC)) 50 % of control; (dose: 120.0 mg/kg/injection, schedule: Q04DX003 (ip), vehicle: Klucel (hydroxypropylcellulose) (HPC)) 21 % of control; (dose: 400.0 mg/kg/injection, schedule: Q04DX003 (ip), vehicle: Klucel (hydroxypropylcellulose) (HPC)) 56 % of control and 58 % of control; (dose: 666.67 mg/kg/injection, schedule: Q04DX003 (ip), vehicle: Klucel (hydroxypropylcellulose) (HPC)) 33 % of control and 40 % of control.

On to `C=Cc1cc(OC)c2c(c1)c(=O)oc1c2cc(OC)c2c(O)ccc(C3OC(C)C(O)C(C)(O)C3O)c21` (stereo not drawn), for which the T/C is 95 % of control (dose: 37.5 mg/kg/injection, schedule: Q04DX003 (ip), vehicle: DMSO); 86 % of control (dose: 75.0 mg/kg/injection, schedule: Q04DX003 (ip), vehicle: DMSO); 79 % of control under setting [6]; 64 % of control under setting [7].

As to `N#CC(C#N)=NNc1ccc2cn[nH]c2c1`, the T/C was 94 % of control (dose: 12.5 mg/kg/injection, schedule: Q04DX003 (ip), vehicle: Klucel (hydroxypropylcellulose) (HPC)); 174 % of control (dose: 50.0 mg/kg/injection, schedule: Q04DX003 (ip), vehicle: Klucel (hydroxypropylcellulose) (HPC)); 106 % of control (dose: 100.0 mg/kg/injection, schedule: Q04DX003 (ip), vehicle: Klucel (hydroxypropylcellulose) (HPC)).

With `O=C(O)CC(=O)O.[NH-]CC[NH-].[Pt+2]`, the T/C (dose: 25.0 mg/kg/injection, schedule: Q01DX010 (sc), vehicle: dextrose) was -6 % of control and the T/C (dose: 50.0 mg/kg/injection, schedule: Q01DX010 (sc), vehicle: dextrose) was -85 % of control.

Regarding `Nc1nc(N)c2cc(CNc3ccc(C(=O)NC(CC(=O)O)CC(=O)O)cc3)ccc2n1`, the T/C reads like this: (dose: 150.0 mg/kg/injection, schedule: Q04DX003 (sc), vehicle: Klucel (hydroxypropylcellulose) (HPC)) 103 % of control; under setting [3], 86 % of control; under setting [4], 91 % of control; under setting [5], 101 % of control.

Turning to `COC(=O)[C@@]12OC[C@]34[C@H]([C@@H](O)[C@@H]1O)[C@@]1(C)CC(=O)C(O)=C(C)[C@@H]1C[C@H]3OC(=O)[C@H](OC(=O)/C=C(\C)C(C)C)[C@@H]24`, the T/C (dose: 1.0 mg/kg/injection, schedule: Q01DX010 (sc), vehicle: saline + alcohol) was 51 % of control.

Take `Cn1c(=S)sc2nc3ccccc3n2c1=S`: the T/C was 165 % of control (dose: 30.0 mg/kg/injection, schedule: Q04DX003 (ip), vehicle: saline with Tween-80) and 42 % of control (dose: 120.0 mg/kg/injection, schedule: Q04DX003 (ip), vehicle: saline with Tween-80).

As for `COc1ccc(S(=O)(=O)N/N=C/C(=O)O)cc1`, the T/C by setting is: (dose: 25.0 mg/kg/injection, schedule: Q01DX010 (sc), vehicle: saline with Tween-80) 79 % of control; (dose: 50.0 mg/kg/injection, schedule: Q01DX010 (sc), vehicle: saline with Tween-80) 59 % of control; (dose: 100.0 mg/kg/injection, schedule: Q01DX010 (sc), vehicle: saline with Tween-80) 8 % of control.

As to `CC1(C)Nc2cc3c(cc2-n2cccc21)oc1ccccc13`, the T/C was 113 % of control under setting [6]; 90 % of control under setting [7]; 83 % of control (dose: 600.0 mg/kg/injection, schedule: Q04DX003 (ip), vehicle: DMSO); 80 % of control (dose: 1200.0 mg/kg/injection, schedule: Q04DX003 (ip), vehicle: DMSO).

On to `CCN(CC)CC(C)(C)C(=O)/C=C/c1ccc(/C=C/C(=O)C(C)(C)CN(CC)CC)cc1`, for which, under “dose: 60.0 mg/kg/injection, schedule: Q04DX003 (ip), vehicle: saline”, the T/C was 67 % of control.

In the case of `Nc1ccn(C2CC(N)C(CO)O2)c(=O)n1` (stereo not drawn), the T/C under setting [1] is 77 % of control; the T/C under setting [2] was 105 % of control; the T/C (dose: 300.0 mg/kg/injection, schedule: Q04DX003 (ip), vehicle: saline with Tween-80) is 74 % of control; the T/C (dose: 600.0 mg/kg/injection, schedule: Q04DX003 (ip), vehicle: saline with Tween-80) was 82 % of control.

Take `NC(CNC(=O)CBr)C(=O)O` (stereo not drawn): the T/C (dose: 37.5 mg/kg/injection, schedule: Q04DX003 (sc), vehicle: water) is 82 % of control and the T/C (dose: 150.0 mg/kg/injection, schedule: Q04DX003 (sc), vehicle: water) is 54 % of control.

For `CCC(=O)N(C)[C@@H](C)C(=O)O[C@H]1CC(=O)N(C)c2cc(cc(OC)c2Cl)C/C(C)=C/C=C[C@@H](OC)[C@@]2(O)C[C@H](OC(=O)N2)[C@@H](C)[C@@H]2O[C@@]12C`, the T/C runs as follows: (dose: 0.12 mg/kg/injection, schedule: Q04DX003 (sc), vehicle: saline + alcohol) 100 % of control; (dose: 0.25 mg/kg/injection, schedule: Q04DX003 (sc), vehicle: saline + alcohol) 48 % of control; (dose: 0.5 mg/kg/injection, schedule: Q04DX003 (sc), vehicle: saline + alcohol) 5 % of control; (dose: 7.5 micrograms/kg/injection, schedule: Q04DX004 (ip), vehicle: saline + alcohol) 115 % of control; (dose: 15.0 micrograms/kg/injection, schedule: Q04DX004 (ip), vehicle: saline + alcohol) 67 % of control.
